Among the data in patent US8431593B2, “Heteroaryl amide derivatives” (H. Lundbeck A/S, priority 2006, dated 2013) are IC50 values, retold here.

Like-named read-outs stand apart in the source and are kept apart here.

For this test, the target named is T1, P2X7 receptor (Homo sapiens, UniProt Q99572).
T1 construct: host or cells: SH-SY5Y
T1 sequence (Q99572 1-595): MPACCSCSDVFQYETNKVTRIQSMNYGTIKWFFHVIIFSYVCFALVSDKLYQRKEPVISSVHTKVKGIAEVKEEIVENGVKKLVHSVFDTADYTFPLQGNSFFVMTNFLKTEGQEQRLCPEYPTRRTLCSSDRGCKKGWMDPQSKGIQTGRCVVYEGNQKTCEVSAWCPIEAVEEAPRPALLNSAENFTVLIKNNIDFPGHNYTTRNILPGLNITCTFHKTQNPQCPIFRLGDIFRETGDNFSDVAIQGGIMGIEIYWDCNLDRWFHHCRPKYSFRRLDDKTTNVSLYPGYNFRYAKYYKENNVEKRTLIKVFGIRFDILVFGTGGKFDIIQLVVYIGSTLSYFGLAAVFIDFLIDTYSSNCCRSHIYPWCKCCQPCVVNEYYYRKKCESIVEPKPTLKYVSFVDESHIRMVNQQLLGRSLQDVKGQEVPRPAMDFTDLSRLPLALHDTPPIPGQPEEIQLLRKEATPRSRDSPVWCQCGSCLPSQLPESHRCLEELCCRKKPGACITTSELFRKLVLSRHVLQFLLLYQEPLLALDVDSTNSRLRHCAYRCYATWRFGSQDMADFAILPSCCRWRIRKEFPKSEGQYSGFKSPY
Nature of the test: P2X7 calcium mobilization assay, high throughput, antagonist activity (Example 4A). It counts as cell-based. In outline:
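FLIPR^TETRA calcium read-out: maximum RFU per well minus average no-agonist control, with agonist wells giving the average positive maximum. Cells seeded at 100,000/well one day ahead, dye-loaded 1 h, rinsed, then exposed to compound for 1 h at room temperature.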
(In general: Calcium flux is commonly read through the fluorescence of an indicator in the cells.)

The mark [1] stands for this setting: SH-SY5Y cells, 50% decrease in fluorescence response to 80 μM BzATP, read-out: IC50.

As a reminder, the IC50 is the point on the concentration scale where inhibition reaches its midpoint. As to `CN(C)CCOCc1cn2c(C(=O)NCC34CC5CC(CC(C5)C3)C4)cccc2n1` [Compound 127, N-(adamantan-1-ylmethyl)-2-{[2-(dimethylamino)eth-oxy]methyl}imi-dazo[1,2-a]pyridine-5-carboxamide], the IC50 was less than 2000 nM.

As for `CCOC(=O)c1cn2c(C(=O)NCC(CC(C)C)c3ccccc3)cccc2n1` (stereo not shown) [Compound 128, ethyl 5-[(4-methyl-2-phenyl-pentyl)carbamoyl]imi-dazo[1,2-a]pyridine-2-carboxylate], the IC50 is less than 2000 nM.

With `N[C@@H]1CCN(C(=O)c2cn3c(C(=O)NCC45CC6CC(CC(C6)C4)C5)cccc3n2)C1` [Compound 129, N-(adamantan-1-ylmethyl)-2-{[(3R)-3-aminopyrrolidin-1-yl]carbonyl}imidazo[1,2-a]pyridine-5-carboxamide], the concentration for half-maximal inhibition (IC50) under setting [1] was less than 2000 nM.

Turning to `NC1CN(Cc2cn3c(C(=O)NCC45CC6CC(CC(C6)C4)C5)cccc3n2)C1` [Compound 130, N-(adamantan-1-ylmethyl)-2-[(3-aminoazetidin-1-yl)methyl]imidazo[1,2-a]pyridine-5-carboxamide], the IC50 under setting [1] was less than 2000 nM.

Take `CN(CCO)Cc1cn2c(C(=O)NCC34CC5CC(CC(C5)C3)C4)cccc2n1` [Compound 131, N-(adamantan-1-ylmethyl)-2-{[(2-hydroxyethyl)(meth-yl)amino]methyl}imi-dazo[1,2-a]pyridine-5-carboxamide]: the IC50 is less than 2000 nM.

On to `CC(C)N(CCO)Cc1cn2c(C(=O)NCC34CC5CC(CC(C5)C3)C4)cccc2n1` [Compound 132, N-(adamantan-1-ylmethyl)-2-{[(2-hydroxyethyl)(iso-propyl)amino]methyl}imi-dazo[1,2-a]pyridine-5-carboxamide], for which the half-maximal inhibitory concentration (IC50) was less than 2000 nM.

On to `COCCN(C)Cc1cn2c(C(=O)NCC34CC5CC(CC(C5)C3)C4)cccc2n1` [Compound 133, N-(adamantan-1-ylmethyl)-2-{[(2-methoxyethyl)(meth-yl)amino]methyl}imi-dazo[1,2-a]pyridine-5-carboxamide], for which the IC50 is less than 2000 nM.

`O=C(NCC12CC3CC(CC(C3)C1)C2)c1cccc2nc(CN3CCC(O)C3)cn12` (stereo not shown) [Compound 134, N-(adamantan-1-ylmethyl)-2-[(3-hydroxypyrrolidin-1-yl)methyl]imidazo[1,2-a]pyridine-5-carboxamide]: under setting [1], the IC50 was less than 2000 nM.

Regarding `O=C(NCC12CC3CC(CC(C3)C1)C2)c1cccc2nc(CN3CCCC(O)C3)cn12` (stereo not shown) [Compound 135, N-(adamantan-1-ylmethyl)-2-[(3-hydroxypiperidin-1-yl)methyl]imidazo[1,2-a]pyridine-5-carboxamide], under setting [1], the IC50 is less than 2000 nM.

As to `O=C(NCC12CC3CC(CC(C3)C1)C2)c1cccc2nc(CN(CCO)CCO)cn12` [Compound 136, N-(adamantan-1-ylmethyl)-2-{[bis(2-hydroxyeth-yl)amino]methyl}imi-dazo[1,2-a]pyridine-5-carboxamide], the IC50 was less than 2000 nM.

As to `O=C(NCC12CC3CC(CC(C3)C1)C2)c1cccc2nc(CCN3C(=O)c4ccccc4C3=O)cn12` [Compound 137, N-(adamantan-1-ylmethyl)-2-[2-(1,3-dioxo-1,3-dihydro-2H-isoindol-2-yl)ethyl]imidazo[1,2-a]pyridine-5-carboxamide], under setting [1], the IC50 is less than 2000 nM.

Regarding `CC(C)CC(CNC(=O)c1cccc2nc(CCl)cn12)c1ccccc1` (stereo not shown) [Compound 138, 2-(chloromethyl)-N-(4-methyl-2-phenylpentyl)imidazo[1,2-a]pyridine-5-carboxamide], the IC50 under setting [1] was less than 2000 nM.

With `CCOC(=O)Cc1cn2c(C(=O)NCC(CC(C)C)c3ccccc3)cccc2n1` (stereo not shown) [Compound 139, ethyl {5-[(4-methyl-2-phenylpentyl)car-bamoyl]imidazo[1,2-a]pyridin-2-yl}acetate], the IC50 under setting [1] was less than 2000 nM.

Take `C[C@H]1CN(C(=O)Cc2cn3c(C(=O)NCC45CC6CC(CC(C6)C4)C5)cccc3n2)CCN1` [Compound 140, N-(adamantan-1-ylmethyl)-2-{2-[(3S)-3-methylpiperazin-1-yl]-2-oxoethyl}imidazo[1,2-a]pyridine-5-carboxamide]: the IC50 under setting [1] is less than 2000 nM.

Take `CCOC(=O)Cc1cn2c(C(=O)NCC3CCCCC3)cccc2n1` [Compound 141, ethyl {5-[(cyclohexylmethyl)car-bamoyl]imidazo[1,2-a]pyridin-2-yl}acetate]: the IC50 under setting [1] is less than 2000 nM.

`O=C(NCC1CCCCC1)c1cccc2nc(CCl)cn12` [Compound 142, 2-(chloromethyl)-N-(cyclohexylmethyl)imi-dazo[1,2-a]pyridine-5-carboxamide]: the IC50 was less than 2000 nM.

Consider `CCOC(=O)c1cn2c(NC(=O)CC34CC5CC(CC(C5)C3)C4)cccc2n1` [Compound 143, ethyl 5-[(adamantan-1-ylacetyl)amino]imidazo[1,2-a]pyridine-2-carboxylate], for which the IC50 under setting [1] was less than 2000 nM.

For the molecule `CCOC(=O)Cc1cn2c(NC(=O)CC34CC5CC(CC(C5)C3)C4)cccc2n1` [Compound 145, ethyl {5-[(adamantan-1-ylacetyl)amino]imi-dazo[1,2-a]pyridin-2-yl}acetate], the IC50 was less than 2000 nM.

`CCCNC(=O)Cc1cn2c(C(=O)NCC34CC5CC(CC(C5)C3)C4)cccc2n1` [Compound 146, N-(adamantan-1-ylmethyl)-2-[2-oxo-2-(propylamino)ethyl]imi-dazo[1,2-a]pyridine-5-carboxamide]: the concentration for half-maximal inhibition (IC50) is less than 2000 nM.

Turning to `O=C(Cc1cn2c(C(=O)NCC34CC5CC(CC(C5)C3)C4)cccc2n1)NCC1CC1` [Compound 147, N-(adamantan-1-ylmethyl)-2-{2-[(cyclopropylmeth-yl)amino]-2-oxoethyl}imidazo[1,2-a]pyridine-5-carboxamide], the IC50 under setting [1] was less than 2000 nM.

As to `O=C(Cc1cn2c(C(=O)NCC34CC5CC(CC(C5)C3)C4)cccc2n1)NC1CC1` [Compound 148, N-(adamantan-1-ylmethyl)-2-[2-(cyclopropylamino)-2-oxoethyl]imidazo[1,2-a]pyridine-5-carboxamide], under setting [1], the IC50 is less than 2000 nM.

Turning to `O=C(Cc1cn2c(C(=O)NCC34CC5CC(CC(C5)C3)C4)cccc2n1)NC1CCCCC1` [Compound 149, N-(adamantan-1-ylmethyl)-2-[2-(cyclohexylamino)-2-oxoethyl]imidazo[1,2-a]pyridine-5-carboxamide], the IC50 under setting [1] was less than 2000 nM.

For the molecule `CC(C)NC(=O)Cc1cn2c(C(=O)NCC34CC5CC(CC(C5)C3)C4)cccc2n1` [Compound 150, N-(adamantan-1-ylmethyl)-2-[2-(isopropylamino)-2-oxoethyl]imidazo[1,2-a]pyridine-5-carboxamide], the IC50 under setting [1] was less than 2000 nM.

In the case of `O=C(Cc1cn2c(C(=O)NCC34CC5CC(CC(C5)C3)C4)cccc2n1)NC1CCC1` [Compound 151, N-(adamantan-1-ylmethyl)-2-[2-(cyclobutylamino)-2-oxoethyl]imidazo[1,2-a]pyridine-5-carboxamide], under setting [1], the half-maximal inhibitory concentration (IC50) was less than 2000 nM.

In the case of `CCC(C)NC(=O)Cc1cn2c(C(=O)NCC34CC5CC(CC(C5)C3)C4)cccc2n1` (stereo not shown) [Compound 152, N-(adamantan-1-ylmethyl)-2-[2-(sec-butylamino)-2-oxoethyl]imidazo[1,2-a]pyridine-5-carboxamide], the IC50 under setting [1] was less than 2000 nM.

In the case of `O=C(Cc1cn2c(C(=O)NCC34CC5CC(CC(C5)C3)C4)cccc2n1)NC1CCCC1` [Compound 153, N-(adamantan-1-ylmethyl)-2-[2-(cyclopentylamino)-2-oxoethyl]imidazo[1,2-a]pyridine-5-carboxamide], the IC50 under setting [1] was less than 2000 nM.

On to `CC(C)(C)CNC(=O)Cc1cn2c(C(=O)NCC34CC5CC(CC(C5)C3)C4)cccc2n1` [Compound 154, N-(adamantan-1-ylmethyl)-2-{2-[(2,2-dimethylpropyl)amino]-2-oxoethyl}imidazo[1,2-a]pyridine-5-carboxamide], for which the IC50 under setting [1] is less than 2000 nM.

Turning to `CCOCCNC(=O)Cc1cn2c(C(=O)NCC34CC5CC(CC(C5)C3)C4)cccc2n1` [Compound 155, N-(adamantan-1-ylmethyl)-2-{2-[(2-ethoxyethyl)amino]-2-oxoethyl}imidazo[1,2-a]pyridine-5-carboxamide], the IC50 under setting [1] is less than 2000 nM.

For `CC(C)OCCNC(=O)Cc1cn2c(C(=O)NCC34CC5CC(CC(C5)C3)C4)cccc2n1` [Compound 156, N-(adamantan-1-ylmethyl)-2-{2-[(2-isopropoxyethyl)amino]-2-oxoethyl}imidazo[1,2-a]pyridine-5-carboxamide], the IC50 under setting [1] is less than 2000 nM.

Consider `O=C(Cc1cn2c(C(=O)NCC34CC5CC(CC(C5)C3)C4)cccc2n1)NCC1CCCO1` (stereo not shown) [Compound 157, N-(adamantan-1-ylmethyl)-2-{2-oxo-2-[(tetrahydrofuran-2-ylmethyl)amino]ethyl}imi-dazo[1,2-a]pyridine-5-carboxamide], for which the IC50 is less than 2000 nM.

On to `O=C(Cc1cn2c(C(=O)NCC34CC5CC(CC(C5)C3)C4)cccc2n1)NCC(F)(F)F` [Compound 158, N-(adamantan-1-ylmethyl)-2-{2-oxo-2-[(2,2,2-trifluoroethyl)amino]eth-yl}imidazo[1,2-a]pyridine-5-carboxamide], for which the IC50 under setting [1] is less than 2000 nM.
